Earlier results in patent US20220305127A1, “PYRROLOBENZODIAZEPINE ANTIBODY CONJUGATES” (priority 2017, published 2022).

Details: Phase I clinical evaluation

C=C1C[C@H]2C=Nc3cc(OCCCOc4cc5c(cc4OC)C(=O)N4CC(=C)C[C@H]4C=N5)c(OC)cc3C(=O)N2C1 [SJG-136]
DNA damage in circulating lymphocytes: noted at all doses
adverse effects: vascular leak syndrome, peripheral edema, liver toxicity and fatigue
maximum tolerated dose: 45 μg/m^2
